Test results published in paper PMC12282092, “Discovery of a non-nucleoside inhibitor that binds to a novel site in the palm domain of the respiratory syncytial virus RNA-dependent RNA polymerase” (Journal of Virology, 2025).
Where two headings read alike, the source gives them in different places.

What was measured:
[1] = Metabolic stability in liver microsomes; conditions: in vitro intrinsic clearance in human liver microsomes, n = 1
RSV-B/05_036549 = assay: microbe, parasite or virus in culture; assay type: cell-based; conditions: human respiratory syncytial virus; RSV-B/05_036549, HeLa cells, RT-qPCR
RSV-A/Long = assay: microbe, parasite or virus in culture; assay type: cell-based; conditions: human respiratory syncytial virus, HeLa cells, RT-qPCR
RSV L+P-JNJ-8003 complex = biological target: T1, RSV L+P-JNJ-8003 complex (Human respiratory syncytial virus A, UniProt P28887); assay: SPR A-B-A competition with capping domain binder JNJ-8003; assay type: binding; conditions: 60 nM JNJ-8003 competitor
T1 construct: a biophysical SPR assay was established using full-length RSV L+P complex; Twin-Strep-tag (N); made in house; host or cells: Sf9 insect cells (baculovirus)
T1 sequence (P28887 whole entry, the tested form may be a part): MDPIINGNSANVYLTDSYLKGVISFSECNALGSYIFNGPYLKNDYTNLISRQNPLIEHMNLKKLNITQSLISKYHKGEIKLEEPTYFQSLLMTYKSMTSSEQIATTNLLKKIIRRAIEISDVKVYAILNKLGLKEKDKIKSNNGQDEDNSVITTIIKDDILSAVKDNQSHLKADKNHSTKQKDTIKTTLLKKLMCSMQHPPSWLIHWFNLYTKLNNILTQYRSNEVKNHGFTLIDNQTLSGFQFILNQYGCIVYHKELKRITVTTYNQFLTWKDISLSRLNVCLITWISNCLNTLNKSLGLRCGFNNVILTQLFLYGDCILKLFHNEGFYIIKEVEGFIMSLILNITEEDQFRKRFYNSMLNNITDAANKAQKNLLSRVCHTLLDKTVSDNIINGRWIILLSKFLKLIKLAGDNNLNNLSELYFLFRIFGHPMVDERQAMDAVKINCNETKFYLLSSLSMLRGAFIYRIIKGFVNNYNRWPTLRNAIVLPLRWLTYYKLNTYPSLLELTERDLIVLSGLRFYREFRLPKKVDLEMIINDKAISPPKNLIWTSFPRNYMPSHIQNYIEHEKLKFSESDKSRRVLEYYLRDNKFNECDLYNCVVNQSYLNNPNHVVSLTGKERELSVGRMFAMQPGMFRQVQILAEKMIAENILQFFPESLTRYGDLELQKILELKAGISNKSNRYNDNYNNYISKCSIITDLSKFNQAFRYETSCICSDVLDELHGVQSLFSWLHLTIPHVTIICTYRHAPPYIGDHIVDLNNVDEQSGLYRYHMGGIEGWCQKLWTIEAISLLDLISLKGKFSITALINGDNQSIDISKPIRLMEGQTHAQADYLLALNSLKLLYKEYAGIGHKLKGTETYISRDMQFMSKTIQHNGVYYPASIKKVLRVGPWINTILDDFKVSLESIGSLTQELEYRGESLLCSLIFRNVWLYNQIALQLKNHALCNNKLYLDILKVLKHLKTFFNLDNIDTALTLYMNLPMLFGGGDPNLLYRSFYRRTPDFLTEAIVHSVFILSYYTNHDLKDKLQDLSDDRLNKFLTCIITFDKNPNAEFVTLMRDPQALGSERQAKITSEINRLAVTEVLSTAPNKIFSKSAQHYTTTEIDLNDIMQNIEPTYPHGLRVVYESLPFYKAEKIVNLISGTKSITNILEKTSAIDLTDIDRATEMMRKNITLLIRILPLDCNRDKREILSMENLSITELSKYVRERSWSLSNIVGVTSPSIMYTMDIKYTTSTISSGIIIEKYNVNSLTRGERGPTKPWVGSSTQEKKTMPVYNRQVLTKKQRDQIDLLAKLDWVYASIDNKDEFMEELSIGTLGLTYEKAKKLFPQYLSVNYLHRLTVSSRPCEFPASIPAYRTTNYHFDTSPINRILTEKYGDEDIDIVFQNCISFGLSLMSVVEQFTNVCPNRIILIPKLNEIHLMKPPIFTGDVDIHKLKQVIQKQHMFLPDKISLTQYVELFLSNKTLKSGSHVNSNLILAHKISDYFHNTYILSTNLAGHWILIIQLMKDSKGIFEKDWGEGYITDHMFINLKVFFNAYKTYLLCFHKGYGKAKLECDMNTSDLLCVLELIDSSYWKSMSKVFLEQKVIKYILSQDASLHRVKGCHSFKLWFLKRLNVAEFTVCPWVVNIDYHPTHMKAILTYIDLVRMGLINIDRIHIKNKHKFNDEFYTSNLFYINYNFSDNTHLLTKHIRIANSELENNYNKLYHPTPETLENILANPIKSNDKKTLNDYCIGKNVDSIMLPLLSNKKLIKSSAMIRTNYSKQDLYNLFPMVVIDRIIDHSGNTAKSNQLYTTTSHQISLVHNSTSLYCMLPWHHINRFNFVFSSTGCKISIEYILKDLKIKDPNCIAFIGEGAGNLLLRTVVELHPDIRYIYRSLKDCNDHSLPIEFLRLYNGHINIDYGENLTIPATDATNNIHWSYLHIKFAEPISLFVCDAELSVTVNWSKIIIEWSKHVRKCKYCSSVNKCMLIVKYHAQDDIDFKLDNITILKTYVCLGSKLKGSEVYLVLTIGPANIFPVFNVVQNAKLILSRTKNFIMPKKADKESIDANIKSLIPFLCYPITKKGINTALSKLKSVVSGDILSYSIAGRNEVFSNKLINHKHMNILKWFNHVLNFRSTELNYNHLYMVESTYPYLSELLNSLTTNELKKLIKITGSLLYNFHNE
T1 sequence (P03421 whole entry, further chain, the tested form may be a part): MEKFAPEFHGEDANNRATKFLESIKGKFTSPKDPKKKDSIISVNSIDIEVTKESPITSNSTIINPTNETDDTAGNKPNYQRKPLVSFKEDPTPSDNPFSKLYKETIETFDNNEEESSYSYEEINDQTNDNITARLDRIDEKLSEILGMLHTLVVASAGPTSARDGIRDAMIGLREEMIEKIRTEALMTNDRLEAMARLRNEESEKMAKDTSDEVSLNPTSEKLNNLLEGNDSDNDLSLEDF
Procedure: (§1) Here, the competitor was held at a constant concentration (60 nM for JNJ-8003 and 150 nM for JNJ-7184) during baseline acquisition, association, and dissociation of the test compound.
(§2) The Biacore A-B-A injection method was used to assess compound binding competition. RSVpol was immobilized as above. […] Dissociation of any bound 22 was then measured for 500 s in the presence of a competitor. The temperature was 25°C, and the flow rate was kept at 30 µL/min.

RSV L+P [2] = biological target: T2, RSV L+P (Human respiratory syncytial virus A, UniProt P28887); assay: De novo RNA synthesis assay (TrC-14, +3 site); assay type: biochemical; conditions: TrC-14 template
T2 construct: Biochemical activity of 1 and 22 against full-length RSV L+P; Twin-Strep-tag (N); made in house; host or cells: Sf9 insect cells (baculovirus, pFastBac Dual)
Procedure: The reaction was quenched by an equal volume of gel loading buffer consisting of 90% formamide and 50 mM EDTA. Samples were heated to 95°C for 5 min, resolved on a 22.5% polyacrylamide urea sequencing gel at 80 W, and then transferred to Whatman cellulose chromatography paper (Millipore Sigma). The gel was dried for 1 h on a gel dryer (Bio-Rad), exposed to a phosphor screen, and imaged using a Typhoon phosphorimager (GE Healthcare).

RSV L+P [3] = biological target: T2, RSV L+P; assay: Pyrophosphate luminescence detection assay, full-length RSV L+P; assay type: biochemical; conditions: pyrophosphate luminescence detection assay
Procedure: Working solutions (3×) of RSV L+P (60 nM), substrate (30 µM each of GTP, CTP, UTP, 300 µM ATPαS [Jena Bioscience], 15 µM RNA template TrC-25), detection reagents (6 nM Luciferase, 900 µM luciferin, 3 U/µL ATP Sulfurylase [BioVision], 15 µM adenosine phosphosulfate [APS], 3 mM coenzyme A), were prepared in complete assay buffer. Compounds were dissolved in dimethyl sulfoxide (DMSO) and dispensed to white, 1536-well cyclic olefin copolymer (COC) plates (Corning, 9145BC) using an Echo Acoustic Liquid Handler (Beckman Coulter, San Jose, CA). Substrate (1 µL) and detection reagents (1 µL) were dispensed using a Multidrop Combi Dispenser (ThermoFisher, Waltham, MA), followed by enzyme (1 µL) to initiate the reaction. Final screening concentrations were 20 nM RSV L+P, 10 µM GTP/CTP/UTP, 100 µM ATPαS, 5 µM TrC-25, 2 nM Luciferase (Promega), 300 µM luciferin (Promega), 1 U/µL ATP sulfurylase, 5 µM APS, and 1 mM CoA. […] Luminescence was detected using the PHERAStar FSX (BMG Labtech, Ortenberg, Germany).

[4] = HeLa cytotoxicity assay (ATPlite); conditions: human, HeLa cells
Procedure: (§3) Compound serial dilutions (9 point, fourfold) were prepared in DMSO, and 200 nL was transferred to black, 384-well, clear-bottom microtiter plates (Corning, Amsterdam, The Netherlands) via acoustic drop ejection ([36], [50]). […] Then, 20 µL of a HeLa cell suspension (3,000 cells/well) was added with a Multidrop Combi, and cells were incubated at 37°C in a 5% CO2 atmosphere. After 72 h, GFP expression was quantified using an EnVision Multimode Plate Reader (Perkin Elmer, Zaventem, Belgium), and data were normalized to untreated and media-only (no virus) controls. Cytotoxicity was determined in parallel using the ATPlite kit (Perkin Elmer, Zaventem, Belgium). Luminescence was measured in white, 384-well microtiter plates (Corning) on a ViewLux uHTS Microplate Imager apparatus (PerkinElmer, Zaventem, Belgium), and cellular ATP content was quantified by normalizing to untreated and media-only (no cell) controls. […] Figures were prepared with GraphPad Prism.

HeLa cells [5] = assay: HeLa cytotoxicity assay (ATPlite); conditions: HeLa cells
Procedure: as §3

[6] = tested on: RSV replicon in APC-126 cells; assay: APC-126 minireplicon assay; assay type: cell-based; conditions: human respiratory syncytial virus, APC-126, 72 h
Procedure: (§4) A proprietary BHK-based cell line, APC-126, harboring the RSV replicon, was obtained from Apath (New York, USA) and cultured in DMEM/Ham’s F-12 50/50, supplemented with 10% (vol/vol) FBS (Gibco), 1% (vol/vol) penicillin-streptomycin (Gibco), 1% (vol/vol) MEM non-essential amino acids (Gibco), 5% (vol/vol) Tryptose Phosphate Broth (Sigma-Aldrich), and 10 µg/mL blasticidin (Invitrogen) at 37°C in a humidified 5% CO2 incubator ([36]). Cells were plated (3,500 cells/well) in white, 96-well, clear-bottom plates (Corning) and incubated for 24 h. Compound serial dilutions (9 point, threefold) were prepared in DMSO and diluted 10-fold in culture media before treating cells (final [DMSO] = 1% [vol/vol]). […] In parallel, cytotoxicity was measured using CellTiter-Glo (Promega) under the same conditions. […] Figures were prepared with GraphPad Prism.

RSV L+P-JNJ-7184 complex = biological target: T3, RSV L+P-JNJ-7184 complex (Human respiratory syncytial virus A, UniProt P28887); assay: SPR A-B-A competition with connector domain binder JNJ-7184; assay type: binding; conditions: 150 nM JNJ-7184 competitor
T3 construct: a biophysical SPR assay was established using full-length RSV L+P complex; Twin-Strep-tag (N); made in house; host or cells: Sf9 insect cells (baculovirus)
T3 sequence (P03421 whole entry, the tested form may be a part): as the sequence (P03421 whole entry, further chain, the tested form may be a part) above
T3 sequence (P28887 whole entry, the tested form may be a part): as the sequence (P28887 whole entry, the tested form may be a part) above
Procedure: as §1, §2

RSV L+P [7] = biological target: T2, RSV L+P; assay: Yonetani-Theorell mutual exclusivity analysis; assay type: biochemical
Procedure: Here, matrix titrations of the two inhibitors were carried out, and initial rates were determined for each inhibitor combination. Data were fitted to the Yonetani-Theorell equation (Supp. equation S1) to determine the interaction constant, γ. […] When γ > 1, binding is antagonistic, and as γ approaches infinity, the ligands are considered mutually exclusive. Conversely, when γ < 1, binding is synergistic.

RSV-B/Wash/18537 = assay: microbe, parasite or virus in culture; assay type: cell-based; conditions: human respiratory syncytial virus; RSV-B/Wash/18537, HeLa cells, RT-qPCR
RSV-A/A2 = assay: microbe, parasite or virus in culture; assay type: cell-based; conditions: human respiratory syncytial virus; RSV-A/A2, HeLa cells, RT-qPCR
in vitro = conditions: human
RSV L+P [8] = biological target: T2, RSV L+P; assay: Single-nucleotide incorporation (primer extension) assays; assay type: biochemical; conditions: 50 µM 22, primers AC, ACG, ACGA, ACGAG
Procedure: Reactions were initiated by the addition of 100 nM [α-^32P]NTP (3,000 Ci/mmol) tracer and run for an additional 30 min before quenching with an equal volume of gel loading buffer (90% formamide, 50 mM EDTA, 0.05% Xylene Cyanol and Bromophenol Blue). Gel images were obtained and processed as described for the de novo assay, and data were normalized to untreated controls to determine percent inhibition.

RSV L+P [9] = biological target: T2, RSV L+P; assay: SPR assay; assay type: binding; conditions: 25°C
Procedure: A Biacore Series S SA (Cytiva) chip is first derivatized by a 60 s injection of 50 µg/mL Tris NTA-biotin (synthesized in-house). The chip was further conditioned by a 60 s injection of 350 mM EDTA (Cytiva, 28995043) followed by a 60 s injection of 0.5 mM NiCl2 (Cytiva, 28995043). Purified human, recombinant His-tagged RSV L+P protein (C-terminal 8× His) was captured via a 1,200 s injection at 30 µg/mL to obtain immobilization levels of 8,000–9,000 RU. The surface was then blocked with a 60 s injection of 100 µM PEG-biotin (Thermo Scientific). The experiments were performed at 25°C, using a Biacore 8K+ (Cytiva) and running buffer: 10 mM HEPES, 300 mM NaCl, 10 mM MgCl2, pH 7.4, 5% glycerol, 2% DMSO, 0.005% p20, 0.5 mM TCEP. […] Reference and buffer-blank subtracted data were analyzed with the Biacore 8K Insight Evaluation Software and fit to a 1:1 Langmuir model to obtain KD values and binding kinetics.

[10] = tested on: rgRSV224 virus (RSV A2) in HeLa cells; assay: HeLa cell rgRSV224 eGFP reporter viral proliferation assay; assay type: cell-based; conditions: RSV eGFP phenotypic assay in HeLa cells; for EC50: MOI 1, 72 h, n ≥ 2, read-out: Cellular EC50
Procedure: as §3

[11] = biological target: human mitochondrial RNA polymerase (POLRMT) (Homo sapiens, UniProt O00411); assay: POLRMT assay
RSV L+P [12] = biological target: T2, RSV L+P; assay: Mode of inhibition by progress curve analysis; assay type: biochemical
Procedure: To determine the mode of inhibition, progress curve analysis was carried out with the full-length complex.

HeLa cells [13] = conditions: HeLa cytotoxicity
[14] = APC-126 cytotoxicity assay (CellTiter-Glo); assay type: cell-based; conditions: hamster; APC-126, 72 h; read-out: Replicon CC50
Procedure: as §4

Question: Which “HLM CLint” value [1] does the source give for `CN1C(=O)C2(CCN(c3cnc(C#N)c(Cl)c3)CC2)c2cc(Br)ccc21` [Compound 22, 5-(5-bromo-1-methyl-2-oxospiro[indoline-3,4'-piperidin]-1'-yl)-3-chloropicolinonitrile] here?
Answer: 10.9 µL/min/mg microsomal protein

Question: What about the EC50 (RSV-B/05_036549) of the same compound?
Answer: 1 µM

Question: And the EC50 (RSV-A/Long)?
Answer: 0.97 µM

Question: What about the “SPR ka in the presence of JNJ-8003” value (RSV L+P-JNJ-8003 complex) of the same compound?
Answer: 119000 M⁻¹ s⁻¹

Question: And the “SPR kd in the presence of JNJ-8003” value (RSV L+P-JNJ-8003 complex)?
Answer: 0.0628 s⁻¹

Question: What about the Kd (RSV L+P-JNJ-8003 complex; read-out: SPR KD in the presence of JNJ-8003) of the same compound?
Answer: 0.53 µM

Question: What about the “maximal inhibition of pppGA formation” value (RSV L+P [2]; +3 site) of the same compound?
Answer: 85%

Question: What about the IC50 (RSV L+P [2]; +3 site, read-out: IC50 of de novo pppGA (pppGpA) formation) of the same compound?
Answer: 0.29 µM

Question: What about the IC50 (RSV L+P [2]; IC50 of 11-mer product) of the same compound?
Answer: 0.48 µM

Question: What about the “maximal inhibition of 11-mer product” value (RSV L+P [2]) of the same compound?
Answer: 71%

Question: What about the IC50 (RSV L+P [3]; full-length RSV L+P, n ≥ 2, read-out: Biochemical IC50) of the same compound?
Answer: 0.27 µM

Question: What about the Emax (RSV L+P [3]; read-out: Biochemical Emax) of the same compound?
Answer: 105%

Question: What about the CC50 at 72 h [4] of the same compound?
Answer: > 50 µM

Question: And the “Cytotoxicity Emax” value (HeLa cells [5])?
Answer: 12.8%

Question: And the EC50 [6]?
Answer: 2.22 µM

Question: And the “SPR ka in the presence of JNJ-7184” value (RSV L+P-JNJ-7184 complex)?
Answer: 140000 M⁻¹ s⁻¹

Question: What about the “SPR kd in the presence of JNJ-7184” value (RSV L+P-JNJ-7184 complex) of the same compound?
Answer: 0.0725 s⁻¹

Question: What about the Kd (RSV L+P-JNJ-7184 complex; read-out: SPR KD in the presence of JNJ-7184) of the same compound?
Answer: 0.52 µM

Question: And the “Yonetani-Theorell interaction constant γ” value (RSV L+P [7]; 22 titrated with capping domain inhibitor compound 23)?
Answer: 1.1 ± 0.2

Question: And the “Yonetani-Theorell interaction constant γ” value (RSV L+P [7]; 22 titrated with connector domain inhibitor compound 24)?
Answer: 0.88 ± 0.72

Question: What about the EC50 (RSV-B/Wash/18537) of the same compound?
Answer: 2.7 µM

Question: And the EC50 (RSV-A/A2)?
Answer: 1.1 µM

Question: And the CC50 (in vitro)?
Answer: > 50 µM

Question: What about the “inhibition of primer extension, TrC-14 template” value (RSV L+P [8]) of the same compound?
Answer: inhibited

Question: What about the SPR kd (RSV L+P [9]; immobilized RSV L+P) of the same compound?
Answer: 0.0609 s⁻¹

Question: And the Kd (RSV L+P [9]; immobilized full-length RSV L+P)?
Answer: 0.47 µM

Question: And the EC50 [10]?
Answer: 2.38 µM

Question: What about the EC50 ([10]; human respiratory syncytial virus, HeLa, 72 h) of the same compound?
Answer: 2.28 µM

Question: And the Emax ([10]; human respiratory syncytial virus, read-out: Cellular Emax)?
Answer: 94%

Question: And the IC50 [11]?
Answer: > 100 µM

Question: And the “α (mixed model inhibition) with respect to UTP” value (RSV L+P [12]; mixed noncompetitive/uncompetitive)?
Answer: 0.33 ± 0.27

Question: What about the “α with respect to TrC-25 RNA template” value (RSV L+P [12]; noncompetitive) of the same compound?
Answer: 1.1 ± 0.6

Question: What about the CC50 (HeLa cells [13]; line RSV-A/A2) of the same compound?
Answer: > 50 µM

Question: And the CC50 (HeLa cells [13]; line RSV-A/Long)?
Answer: > 50 µM

Question: And the CC50 (HeLa cells [13]; line RSV-B/Wash/18537)?
Answer: > 50 µM

Question: And the CC50 at 72 h [14]?
Answer: > 50 µM
